Drawing on US8729082B2, “Substituted imidazoquinoxalines” (Bayer Intellectual Property GmbH, priority 2009, dated 2014), this text covers IC50 for 24 molecules.

The experiment concerns the target T1, human kinase Mps-1 (Homo sapiens, UniProt P33981).
T1 construct: N-terminally GST-tagged human full length recombinant Mps-1 kinase; purchased Invitrogen, Karslruhe, Germany PV4071
T1 sequence (P33981 1-857): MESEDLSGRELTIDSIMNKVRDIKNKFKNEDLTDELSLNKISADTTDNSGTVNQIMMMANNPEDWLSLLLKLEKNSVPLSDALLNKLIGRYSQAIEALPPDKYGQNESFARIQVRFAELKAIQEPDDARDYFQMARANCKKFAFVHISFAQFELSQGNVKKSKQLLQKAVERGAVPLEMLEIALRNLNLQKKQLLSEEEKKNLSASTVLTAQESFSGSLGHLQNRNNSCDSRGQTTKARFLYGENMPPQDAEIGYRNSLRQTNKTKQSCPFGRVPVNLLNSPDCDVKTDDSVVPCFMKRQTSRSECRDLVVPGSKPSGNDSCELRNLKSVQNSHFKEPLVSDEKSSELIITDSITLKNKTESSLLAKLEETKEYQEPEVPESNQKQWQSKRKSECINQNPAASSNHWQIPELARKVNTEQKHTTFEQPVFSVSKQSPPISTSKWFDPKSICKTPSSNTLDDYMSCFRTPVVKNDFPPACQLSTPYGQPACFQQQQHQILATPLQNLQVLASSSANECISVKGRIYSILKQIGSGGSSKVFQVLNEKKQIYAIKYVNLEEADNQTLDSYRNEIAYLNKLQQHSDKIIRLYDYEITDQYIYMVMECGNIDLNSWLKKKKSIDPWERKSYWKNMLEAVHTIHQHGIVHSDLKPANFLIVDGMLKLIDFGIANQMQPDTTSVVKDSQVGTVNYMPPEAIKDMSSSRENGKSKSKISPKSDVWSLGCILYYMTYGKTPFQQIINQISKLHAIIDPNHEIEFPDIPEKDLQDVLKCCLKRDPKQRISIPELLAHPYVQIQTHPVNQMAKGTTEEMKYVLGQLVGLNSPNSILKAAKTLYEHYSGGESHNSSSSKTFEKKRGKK
In words: Mps-1 kinase assay (HTRF). It counts as biochemical. Particulars: lowATP; mean; read-out: Mps1 lowATP mean IC50. Here is the method:
The human kinase Mps-1 phosphorylates a biotinylated substrate peptide. Detection of the phosphorylated product is achieved by homogenous time-resolved fluorescence resonance energy transfer (HTRF) from Europium-labelled anti-phospho-Serine/Threonine antibody as donor to streptavidin labelled with cross-linked allophycocyanin (SA-XLent) as acceptor. Compounds are tested for their inhibition of the kinase activity.
N-terminally GST-tagged human full length recombinant Mps-1 kinase (purchased from Invitrogen, Karslruhe, Germany, cat. no PV4071) was used. As substrate for the kinase reaction a biotinylated peptide of the amino-acid sequence PWDPDDADITEILG (C-terminus in amide form, purchased from Biosynthan GmbH, Berlin) was used.
For the assay 50 nl of a 100-fold concentrated solution of the test compound in DMSO was pipetted into a black low volume 384 well microtiter plate (Greiner Bio-One, Frickenhausen, Germany), 2 μl of a solution of Mps-1 in assay buffer [0.1 mM sodium-ortho-vanadate, 10 mM MgCl2, 2 mM DTT, 25 mM Hepes pH 7.7, 0.05% BSA, 0.001% Pluronic F-127] were added and the mixture was incubated for 15 min at 22° C. to allow pre-binding of the test compounds to Mps-1 before the start of the kinase reaction. Then the kinase reaction was started by the addition of 3 μl of a solution of 16.7 μM ATP and 1.67 μM peptide in assay buffer and the resulting mixture was incubated for a reaction time of 60 min at 22° C. The concentration of Mps-1 in the assay was adjusted to the activity of the enzyme lot and was chosen appropriate to have the assay in the linear range, typical enzyme concentrations were in the range of about 1 nM (final conc. in the 5 μl assay volume). The reaction was stopped by the addition of 3 μl of a solution of HTRF detection reagents (100 mM Hepes pH 7.4, 0.1% BSA, 40 mM EDTA, 140 nM Streptavidin-XLent [#61GSTXLB, Fa. Cis Biointernational, Marcoule, France], 1.5 nM anti-phospho(Ser/Thr)-Europium-antibody [#AD0180, PerkinElmer LAS, Rodgau-Jügesheim, Germany].
The resulting mixture was incubated 1 h at 22° C. to allow the binding of the phosphorylated peptide to the anti-phospho(Ser/Thr)-Europium-antibody. Subsequently the amount of phosphorylated substrate was evaluated by measurement of the resonance energy transfer from the Europium-labelled anti-phospho(Ser/Thr) antibody to the Streptavidin-XLent. Therefore, the fluorescence emissions at 620 nm and 665 nm after excitation at 350 nm was measured in a HTRF reader, e.g. a Rubystar (BMG Labtechnologies, Offenburg, Germany) or a Viewlux (PerkinElmer LAS, Rodgau-Jügesheim, Germany). The ratio of the emissions at 665 nm and at […] was taken as the measure for the amount of phosphorylated substrate. The data were normalised (enzyme reaction without inhibitor=0% inhibition, all other assay components but no enzyme=100% inhibition).
Consider `CC(C)CNc1nc2ccccc2n2c(-c3ccc(C(=O)Nc4cccc(NC(=O)c5cccnc5)c4)cc3)cnc12` [Example 3-28, N-{3-[(4-{4-[(2-methylpropyl)amino]imidazo[1,2-a]quinoxalin-1-yl}benzoyl)amino]phenyl}pyridine-3-carboxamide], for which the IC50 was determined as 361 nM.
The result for `CNC(=O)Nc1ccc(-c2cnc3c(NCCCN4CCCC4=O)nc4ccc(F)cc4n23)cc1` [Example 2-60, 1-[4-(8-fluoro-4-{[3-(2-oxopyrrolidin-1-yl)propyl]amino}imidazo[1,2-a]quinoxalin-1-yl)phenyl]-3-methylurea] reads 12800 nM.
In the case of `C#CCNC(=O)c1ccc(-c2cnc3c(NCC(C)C)nc4ccccc4n23)cc1` [Example 3-13, 4-{4-[(2-methylpropyl)amino]imidazo[1,2-a]quinoxalin-1-yl}-N-(prop-2-yn-1-yl)benzamide] it was 41.2 nM; in that of `O=C(NC1CC1)c1ccc(-c2cnc3c(NCc4ccc(F)cc4)nc4ccc(F)cc4n23)cc1` [Example 2-46, N-cyclopropyl-4-{8-fluoro-4-[(4-fluorobenzyl)amino]imidazo[1,2-a]quinoxalin-1-yl}benzamide], 76.8 nM; in that of `Cc1ccccc1CNc1nc2ccccc2n2c(-c3ccc(C(=O)NC4CC4)cc3)cnc12` [Example 2-6, N-cyclopropyl-4-{4-[(2-methylbenzyl)amino]imidazo[1,2-a]quinoxalin-1-yl}benzamide], 232 nM.
The result for `CC(C)CNc1nc2ccccc2n2c(-c3ccc(C(=O)NCC(N)=O)cc3)cnc12` [Example 3-12, N-(2-amino-2-oxoethyl)-4-{4-[(2-methylpropyl)amino]imidazo[1,2-a]quinoxalin-1-yl}benzamide] reads 1510 nM; that for `CNC(=O)Nc1ccc(-c2cnc3c(NCc4ccccc4F)nc4cc(C)c(C)cc4n23)cc1` [Example 2-163, 1-(4-{4-[(2-fluorobenzyl)amino]-7,8-dimethylimidazo[1,2-a]quinoxalin-1-yl}phenyl)-3-methylurea], 1470 nM.
As for `N#Cc1ccc2c(c1)nc(NCCCCO)c1ncc(-c3ccc(C(=O)NC4CC4)c(Cl)c3)n12` [Example 2-239, 2-chloro-4-{7-cyano-4-[(4-hydroxybutyl)amino]imidazo[1,2-a]quinoxalin-1-yl}-N-cyclopropylbenzamide], the IC50 is 1040 nM.
The result for `O=C(NC1CC1)c1ccc(-c2cnc3c(NCCc4cccnc4)nc4ccccc4n23)cc1` [Example 2-36, N-cyclopropyl-4-(4-{[2-(pyridin-3-yl)ethyl]amino}imidazo[1,2-a]quinoxalin-1-yl)benzamide] reads 129 nM.
The result for `CCCCCNc1nc2ccccc2n2c(-c3ccc(C(=O)NC4CC4)cc3)cnc12` [Example 2-10, N-cyclopropyl-4-[4-(pentylamino)imidazo[1,2-a]quinoxalin-1-yl]benzamide] reads 92.4 nM.
In the case of `N#Cc1ccc2c(c1)nc(NCc1cccc(F)c1)c1ncc(-c3ccc(C(=O)NC4CC4)cc3)n12` [Example 2-206, 4-{7-cyano-4-[(3-fluorobenzyl)amino]imidazo[1,2-a]quinoxalin-1-yl}-N-cyclopropylbenzamide] it was 50.7 nM; in that of `COc1cccc(-c2cnc3c(NCC(C)C)nc4ccccc4n23)c1F` [Example 1-8, 1-(2-fluoro-3-methoxyphenyl)-N-(2-methylpropyl)imidazo[1,2-a]quinoxalin-4-amine], 17300 nM.
On to `CNC(=O)Nc1ccc(-c2cnc3c(NCc4ccnn4C)nc4cc(C)c(C)cc4n23)cc1` [Example 2-175, 1-[4-(7,8-dimethyl-4-{[(1-methyl-1H-pyrazol-5-yl)methyl]amino}imidazo[1,2-a]quinoxalin-1-yl)phenyl]-3-methylurea], for which the IC50 was 199 nM.
The result for `CCCCNc1nc2cc(F)c(F)cc2n2c(-c3ccc(NC(=O)NC)cc3)cnc12` [Example 2-117, 1-{4-[4-(butylamino)-7,8-difluoroimidazo[1,2-a]quinoxalin-1-yl]phenyl}-3-methylurea] reads 19400 nM; that for `CNC(=O)Nc1ccc(-c2cnc3c(NCc4ccnn4C)nc4cc(C#N)ccc4n23)cc1` [Example 2-232, 1-[4-(7-cyano-4-{[(1-methyl-1H-pyrazol-5-yl)methyl]amino}imidazo[1,2-a]quinoxalin-1-yl)phenyl]-3-methylurea], 1140 nM; that for `Cc1cc2nc(NCCC(C)C)c3ncc(-c4ccc(C(=O)NC5CC5)c(Cl)c4)n3c2cc1C` [Example 2-181, 2-chloro-N-cyclopropyl-4-{7,8-dimethyl-4-[(3-methylbutyl)amino]imidazo[1,2-a]quinoxalin-1-yl}benzamide], 71.8 nM.
With `Cc1cc2nc(NCC(O)CO)c3ncc(-c4ccc(C(=O)NC5CC5)c(Cl)c4)n3c2cc1C` (stereo not drawn) [Example 2-202, 2-chloro-N-cyclopropyl-4-{4-[(2,3-dihydroxypropyl)amino]-7,8-dimethylimidazo[1,2-a]quinoxalin-1-yl}benzamide], the IC50 was 335 nM.
In the case of `O=C(NC1CC1)c1ccc(-c2cnc3c(NCCCCN4CCCC4)nc4ccccc4n23)cc1` [Example 2-31, N-cyclopropyl-4-(4-{[4-(pyrrolidin-1-yl)butyl]amino}imidazo[1,2-a]quinoxalin-1-yl)benzamide] it was 321 nM; in that of `CNC(=O)Nc1ccc(-c2cnc3c(NCCCO)nc4cc(C#N)ccc4n23)cc1` [Example 2-227, 1-(4-{7-cyano-4-[(3-hydroxypropyl)amino]imidazo[1,2-a]quinoxalin-1-yl}phenyl)-3-methylurea], 3470 nM.
The result for `O=C(NC1CC1)c1ccc(-c2cnc3c(Nc4ccccc4)nc4ccccc4n23)cc1` [Example 2-9, N-cyclopropyl-4-[4-(phenylamino)imidazo[1,2-a]quinoxalin-1-yl]benzamide] reads 545 nM; that for `CC(C)CCNc1nc2ccccc2n2c(-c3ccc(C(=O)NC4CC4)cc3)cnc12` [Example 2-3, N-cyclopropyl-4-{4-[(3-methylbutyl)amino]imidazo[1,2-a]quinoxalin-1-yl}benzamide], 34 nM; that for `CNC(=O)Nc1ccc(-c2cnc3c(NCCCn4ccnc4)nc4cc(C)c(C)cc4n23)cc1` [Example 2-169, 1-[4-(4-{[3-(1H-imidazol-1-yl)propyl]amino}-7,8-dimethylimidazo[1,2-a]quinoxalin-1-yl)phenyl]-3-methylurea], 274 nM.
On to `N#Cc1ccc2c(c1)nc(NCCO)c1ncc(-c3ccc(C(=O)NC4CC4)c(Cl)c3)n12` [Example 2-235, 2-chloro-4-{7-cyano-4-[(2-hydroxyethyl)amino]imidazo[1,2-a]quinoxalin-1-yl}-N-cyclopropylbenzamide], for which the IC50 turned out to be 3450 nM.
In the case of `CC(C)CCNc1nc2ccc(F)cc2n2c(-c3ccc(C(=O)NC4CC4)cc3)cnc12` [Example 2-43, N-cyclopropyl-4-{8-fluoro-4-[(3-methylbutyl)amino]imidazo[1,2-a]quinoxalin-1-yl}benzamide] it was 35.9 nM.

The IC50 is the concentration at which inhibition is half-maximal.
